Values after ≈ are worked out from the molar mass of the structure shown.

One series can be described thus: physchem. The note with it: water.
Series [1] in a line: Solubility of the active compounds in distilled water.

With `O=C(Nc1ccccc1-c1ccc(Cl)cc1)c1cccnc1Cl` [Boscalid], the concentration in solution in the series “physchem” (solubility) came to 4.6 µg/mL (≈ 13.4 µM).

For the molecule `COC(=O)N(OC)c1ccccc1COc1ccn(-c2ccc(Cl)cc2)n1` [Pyraclostrobin], in series [1], the solubility (usually how much of the substance goes into solution per volume) was 2.4 µg/mL (≈ 6.19 µM).

Source of the values: US20080167189A1, “Polymer Compositions and Their Use in the Production of Active or Effective Ingredient Compositions” (Basf Aktiengesellschaft, priority 2005, published 2008).
